According to ChEMBL document CHEMBL1201862, “PubChem BioAssay data set” (2004):
The source made the active and inactive calls.

Legend:
NADPH oxidase 1 = NADPH oxidase 1 (Homo sapiens, UniProt Q9Y5S8); type: functional, cell-based;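 further: Cell-based assay with luminescence read-out, IC50 derived from inhibitor dose-response curves; intracellular ROS from endogenous NOX1 in intact HT29 colon cancer cells; potency of inhibitors that lower the ROS luminescence signal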
[1] = molecular target: Phosphoethanolamine/phosphocholine phosphatase (Homo sapiens, UniProt Q8TCT1); experiment: SAR assay for compounds that inhibit PHOSPHO1. [Related pubchem assays (depositor defined):AID1545, AID1565, AID1574]
Phosphoethanolamine/phosphocholine phosphatase, sequence (Q8TCT1 whole entry): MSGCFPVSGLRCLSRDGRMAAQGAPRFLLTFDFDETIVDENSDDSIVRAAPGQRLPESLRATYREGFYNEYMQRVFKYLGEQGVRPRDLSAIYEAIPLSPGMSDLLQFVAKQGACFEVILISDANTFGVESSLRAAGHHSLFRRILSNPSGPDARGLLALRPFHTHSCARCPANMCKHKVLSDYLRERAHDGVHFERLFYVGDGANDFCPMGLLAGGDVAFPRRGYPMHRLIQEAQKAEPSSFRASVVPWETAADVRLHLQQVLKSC

Insulin-degrading enzyme = molecular target: T1, Insulin-degrading enzyme (Homo sapiens, UniProt P14735); experiment: Dose Response: Fluorescence polarization-based cell-based high throughput dose response assay for inhibitors of insulin-degrading enzyme (IDE). [Related pubchem assays: 434962 (Primary screen (IDE inhibitors in singlicate)), 449730 (Counterscreen (Cytotoxicity in triplicate)), 435028 (Confirmation (IDE inhibitors in triplicate)), 434984 (Summary …; type: functional
T1 sequence (P14735 whole entry): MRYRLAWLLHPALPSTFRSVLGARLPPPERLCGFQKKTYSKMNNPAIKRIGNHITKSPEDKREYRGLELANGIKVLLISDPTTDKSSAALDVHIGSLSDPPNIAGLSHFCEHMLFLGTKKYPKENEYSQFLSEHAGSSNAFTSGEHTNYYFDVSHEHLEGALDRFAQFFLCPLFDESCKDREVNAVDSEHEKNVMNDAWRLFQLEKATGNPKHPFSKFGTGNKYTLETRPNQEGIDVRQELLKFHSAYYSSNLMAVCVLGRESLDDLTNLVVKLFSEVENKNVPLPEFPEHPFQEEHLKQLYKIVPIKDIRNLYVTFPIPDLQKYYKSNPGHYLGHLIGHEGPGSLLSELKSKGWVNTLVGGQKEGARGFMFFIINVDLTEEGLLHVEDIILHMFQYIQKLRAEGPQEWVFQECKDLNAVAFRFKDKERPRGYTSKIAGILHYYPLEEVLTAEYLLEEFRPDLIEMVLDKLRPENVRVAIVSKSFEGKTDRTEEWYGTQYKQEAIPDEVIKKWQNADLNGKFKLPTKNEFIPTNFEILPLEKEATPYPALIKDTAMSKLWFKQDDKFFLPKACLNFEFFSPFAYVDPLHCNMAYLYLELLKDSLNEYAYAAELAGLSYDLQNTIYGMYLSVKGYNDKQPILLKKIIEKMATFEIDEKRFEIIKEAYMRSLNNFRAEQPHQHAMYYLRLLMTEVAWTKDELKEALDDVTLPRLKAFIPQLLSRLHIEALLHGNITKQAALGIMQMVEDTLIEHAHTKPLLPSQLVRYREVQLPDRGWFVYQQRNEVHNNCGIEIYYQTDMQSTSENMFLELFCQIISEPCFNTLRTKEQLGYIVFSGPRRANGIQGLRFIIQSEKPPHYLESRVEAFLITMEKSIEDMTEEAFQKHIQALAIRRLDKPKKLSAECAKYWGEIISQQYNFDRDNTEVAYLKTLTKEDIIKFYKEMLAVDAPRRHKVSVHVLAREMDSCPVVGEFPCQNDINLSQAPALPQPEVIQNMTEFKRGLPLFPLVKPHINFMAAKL

[2] = molecular target: T2, Mannose-6-phosphate isomerase (Homo sapiens, UniProt P34949); experiment: PMI enzyme inhibitors, confirmation, biochemical, fluorescence intensity (AID 1535)
T2 sequence (P34949 whole entry): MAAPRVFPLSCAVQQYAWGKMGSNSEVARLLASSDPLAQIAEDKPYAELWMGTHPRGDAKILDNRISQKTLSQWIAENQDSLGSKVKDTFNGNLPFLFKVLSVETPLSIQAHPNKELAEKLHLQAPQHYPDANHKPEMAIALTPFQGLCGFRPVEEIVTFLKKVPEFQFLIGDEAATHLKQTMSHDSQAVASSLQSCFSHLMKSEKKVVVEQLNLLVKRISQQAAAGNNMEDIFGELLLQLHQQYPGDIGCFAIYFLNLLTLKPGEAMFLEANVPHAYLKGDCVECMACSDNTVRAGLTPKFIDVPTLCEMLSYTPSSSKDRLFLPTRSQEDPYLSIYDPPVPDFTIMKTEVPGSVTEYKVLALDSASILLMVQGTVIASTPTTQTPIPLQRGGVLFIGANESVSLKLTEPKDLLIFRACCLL

Procathepsin L = Procathepsin L (Homo sapiens, UniProt P07711)
Procathepsin L, sequence (P07711 whole entry): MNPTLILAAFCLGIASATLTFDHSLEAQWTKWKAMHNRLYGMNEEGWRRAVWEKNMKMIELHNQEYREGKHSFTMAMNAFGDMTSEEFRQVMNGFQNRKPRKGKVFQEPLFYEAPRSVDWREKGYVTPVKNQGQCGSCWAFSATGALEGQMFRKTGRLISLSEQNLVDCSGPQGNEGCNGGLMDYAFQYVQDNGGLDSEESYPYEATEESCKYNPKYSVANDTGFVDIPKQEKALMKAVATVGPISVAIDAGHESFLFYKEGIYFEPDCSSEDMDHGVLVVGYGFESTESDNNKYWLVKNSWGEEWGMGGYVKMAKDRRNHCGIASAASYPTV

[3] = Counterscreen for IDE inhibitors: Luminescence-based cell-based high throughput dose response assay to identify compounds that are cytotoxic to HEK cells. [Related pubchem assays: 434962 (Primary screen (IDE inhibitors in singlicate)), 449730 (Counterscreen (Cytotoxicity in triplicate)), 435028 (Confirmation (IDE inhibitors in triplicate)) …; type: functional; settings: HEK293
[4] = molecular target: Eukaryotic translation initiation factor 4E (Mus musculus, UniProt P63073); experiment: eIF4E–eIF4G protein interaction inhibitors, dose response, biochemical, TR-FRET (AID 855); type: functional;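 further: potency for disrupting eIF4E binding to eIF4GI seen as loss of FRET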
Eukaryotic translation initiation factor 4E, sequence (P63073 whole entry): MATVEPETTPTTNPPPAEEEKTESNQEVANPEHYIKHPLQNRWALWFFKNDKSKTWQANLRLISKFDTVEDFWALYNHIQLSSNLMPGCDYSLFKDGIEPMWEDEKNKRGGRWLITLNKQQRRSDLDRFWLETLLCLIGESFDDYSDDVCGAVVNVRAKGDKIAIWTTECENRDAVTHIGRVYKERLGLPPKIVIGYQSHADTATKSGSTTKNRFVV

[5] = cytotoxicity toward NIH3T3 fibroblasts, dose response, counter-screen, cell-based, ATP luminescence, mouse fibroblasts (AID 2010); type: functional;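 further: cells exposed to compound for about 90 hours before reading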
Aspartyl aminopeptidase = molecular target: T3, Aspartyl aminopeptidase (Plasmodium falciparum 3D7, UniProt Q8I2J3)
T3 sequence (Q8I2J3 whole entry): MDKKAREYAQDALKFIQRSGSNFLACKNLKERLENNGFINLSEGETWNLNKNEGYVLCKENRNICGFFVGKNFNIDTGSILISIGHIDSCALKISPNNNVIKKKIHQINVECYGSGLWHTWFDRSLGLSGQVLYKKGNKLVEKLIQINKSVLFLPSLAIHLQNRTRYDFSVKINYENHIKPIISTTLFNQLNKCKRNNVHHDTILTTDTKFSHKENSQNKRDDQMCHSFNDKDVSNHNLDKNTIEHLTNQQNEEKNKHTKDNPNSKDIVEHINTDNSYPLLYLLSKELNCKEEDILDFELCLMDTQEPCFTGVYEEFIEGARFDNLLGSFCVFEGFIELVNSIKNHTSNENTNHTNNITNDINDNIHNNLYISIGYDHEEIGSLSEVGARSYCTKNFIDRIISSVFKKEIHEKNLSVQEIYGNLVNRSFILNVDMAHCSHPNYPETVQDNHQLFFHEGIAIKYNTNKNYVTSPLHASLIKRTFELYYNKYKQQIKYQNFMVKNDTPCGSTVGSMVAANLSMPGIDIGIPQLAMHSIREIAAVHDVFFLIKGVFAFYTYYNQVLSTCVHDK

[6] = molecular target: T2, Mannose-6-phosphate isomerase; experiment: inhibitors of human PMI, primary screen, biochemical, fluorescence intensity, coupled assay (AID 1209)
Large T antigen = Large T antigen (Simian virus 40, UniProt P03070); type: functional, Betapolyomavirus macacae;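 further: Confirmatory-stage PubChem screen for compounds that inhibit SV40 T antigen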
Large T antigen, sequence (P03070 whole entry): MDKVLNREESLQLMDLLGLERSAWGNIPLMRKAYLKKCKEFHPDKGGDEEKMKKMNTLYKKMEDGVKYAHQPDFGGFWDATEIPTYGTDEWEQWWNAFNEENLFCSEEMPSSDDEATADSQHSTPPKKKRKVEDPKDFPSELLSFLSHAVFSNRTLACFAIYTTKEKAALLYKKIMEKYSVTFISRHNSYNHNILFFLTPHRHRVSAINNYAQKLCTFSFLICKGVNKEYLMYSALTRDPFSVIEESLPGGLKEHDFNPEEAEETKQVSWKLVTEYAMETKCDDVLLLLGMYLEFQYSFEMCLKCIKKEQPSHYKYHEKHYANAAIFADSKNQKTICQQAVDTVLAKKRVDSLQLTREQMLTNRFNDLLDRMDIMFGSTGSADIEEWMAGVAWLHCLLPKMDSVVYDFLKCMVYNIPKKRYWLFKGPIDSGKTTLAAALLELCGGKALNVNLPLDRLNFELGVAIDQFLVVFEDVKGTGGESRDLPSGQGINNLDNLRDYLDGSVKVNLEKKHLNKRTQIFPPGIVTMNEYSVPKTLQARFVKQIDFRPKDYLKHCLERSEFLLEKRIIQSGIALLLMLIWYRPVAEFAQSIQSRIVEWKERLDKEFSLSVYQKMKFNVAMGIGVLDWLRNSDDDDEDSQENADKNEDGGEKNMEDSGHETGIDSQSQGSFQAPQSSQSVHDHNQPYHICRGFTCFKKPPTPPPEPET

Phosphomannomutase 2 = molecular target: T4, Phosphomannomutase 2 (Homo sapiens, UniProt O15305); experiment: Counter screen SAR assay for PMM2 inhibitors via a fluorescence intensity assay. [Related pubchem assays (depositor defined):AID1545, AID1574]
T4 sequence (O15305 whole entry): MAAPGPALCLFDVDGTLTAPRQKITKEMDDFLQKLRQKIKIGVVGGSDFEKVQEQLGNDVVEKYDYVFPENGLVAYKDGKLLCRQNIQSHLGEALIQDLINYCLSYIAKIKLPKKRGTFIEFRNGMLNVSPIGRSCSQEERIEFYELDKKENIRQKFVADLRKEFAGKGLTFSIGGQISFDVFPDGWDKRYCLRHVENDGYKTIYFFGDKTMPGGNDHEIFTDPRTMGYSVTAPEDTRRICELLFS

[7] = inhibitors of intracellular T. cruzi replication, confirmation, NIH3T3 host cells, beta-gal luminescence (AID 2044); type: functional, cell-based;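 further: intracellular parasites grown in NIH/3T3 mouse fibroblasts as host cells; luminescent beta-galactosidase reporter signal from transgenic T. cruzi replicating inside host cells; inhibitors lower the luminescence signal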
[8] = molecular target: T5, Alkaline phosphatase, tissue-nonspecific isozyme (Homo sapiens, UniProt P05186); experiment: human TNAP enzyme inhibitors, SAR follow-up, biochemical, luminescent, dose response (AID 1056)
T5 sequence (P05186 whole entry): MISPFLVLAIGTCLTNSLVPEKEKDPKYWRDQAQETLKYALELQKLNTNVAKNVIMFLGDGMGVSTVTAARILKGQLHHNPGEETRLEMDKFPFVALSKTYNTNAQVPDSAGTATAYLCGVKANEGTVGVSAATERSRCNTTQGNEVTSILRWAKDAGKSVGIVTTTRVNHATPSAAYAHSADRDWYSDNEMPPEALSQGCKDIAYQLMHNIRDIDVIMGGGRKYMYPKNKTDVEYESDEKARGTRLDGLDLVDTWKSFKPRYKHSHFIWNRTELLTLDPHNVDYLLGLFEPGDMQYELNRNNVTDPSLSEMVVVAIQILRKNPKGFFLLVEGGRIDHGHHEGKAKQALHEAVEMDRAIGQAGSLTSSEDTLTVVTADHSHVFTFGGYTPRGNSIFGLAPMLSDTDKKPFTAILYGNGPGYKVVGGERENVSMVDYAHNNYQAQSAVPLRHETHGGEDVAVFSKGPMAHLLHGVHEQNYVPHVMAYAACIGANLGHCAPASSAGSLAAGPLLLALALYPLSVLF

[9] = molecular target: T2, Mannose-6-phosphate isomerase; experiment: human PMI inhibitors, high substrate, primary screen, biochemical, fluorescence intensity, high mannose 6-phosphate (AID 1220)
[10] = molecular target: T6, Replicative DNA helicase DnaB (Mycobacterium tuberculosis, UniProt P9WMR3); experiment: DnaB intein splicing inhibitors, dose response, biochemical, cell-free fluorescence (AID 449749); type: functional
T6 sequence (P9WMR3 whole entry): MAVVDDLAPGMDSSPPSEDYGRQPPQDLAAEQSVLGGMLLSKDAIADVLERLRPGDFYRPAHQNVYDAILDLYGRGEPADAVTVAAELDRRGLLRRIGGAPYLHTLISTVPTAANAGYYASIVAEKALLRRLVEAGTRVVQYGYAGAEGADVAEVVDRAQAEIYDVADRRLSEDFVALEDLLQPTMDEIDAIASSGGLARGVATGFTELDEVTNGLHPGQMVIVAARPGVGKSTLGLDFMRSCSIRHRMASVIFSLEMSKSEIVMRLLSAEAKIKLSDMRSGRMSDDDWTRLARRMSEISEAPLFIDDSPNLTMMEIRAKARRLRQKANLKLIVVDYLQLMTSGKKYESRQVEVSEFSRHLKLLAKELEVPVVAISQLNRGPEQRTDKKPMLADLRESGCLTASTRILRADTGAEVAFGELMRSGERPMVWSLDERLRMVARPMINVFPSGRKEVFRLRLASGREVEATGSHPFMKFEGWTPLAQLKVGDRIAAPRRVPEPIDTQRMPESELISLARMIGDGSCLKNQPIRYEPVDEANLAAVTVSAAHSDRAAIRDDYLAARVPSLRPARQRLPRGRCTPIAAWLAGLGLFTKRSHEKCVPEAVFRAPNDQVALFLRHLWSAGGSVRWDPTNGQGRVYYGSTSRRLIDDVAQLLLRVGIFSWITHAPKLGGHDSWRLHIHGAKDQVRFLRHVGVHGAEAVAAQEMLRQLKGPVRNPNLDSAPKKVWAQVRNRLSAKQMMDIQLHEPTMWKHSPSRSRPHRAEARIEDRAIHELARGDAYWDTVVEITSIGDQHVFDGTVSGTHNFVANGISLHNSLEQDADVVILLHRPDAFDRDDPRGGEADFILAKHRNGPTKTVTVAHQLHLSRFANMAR

Estrogen receptor beta [11] = molecular target: T7, Estrogen receptor beta (Homo sapiens, UniProt Q92731);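 further: recombinant ER-beta bound to coactivator SRC1 peptide in presence of estradiol agonist; inhibitors block coactivator peptide binding and lower the FRET signal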
T7 sequence (Q92731 whole entry): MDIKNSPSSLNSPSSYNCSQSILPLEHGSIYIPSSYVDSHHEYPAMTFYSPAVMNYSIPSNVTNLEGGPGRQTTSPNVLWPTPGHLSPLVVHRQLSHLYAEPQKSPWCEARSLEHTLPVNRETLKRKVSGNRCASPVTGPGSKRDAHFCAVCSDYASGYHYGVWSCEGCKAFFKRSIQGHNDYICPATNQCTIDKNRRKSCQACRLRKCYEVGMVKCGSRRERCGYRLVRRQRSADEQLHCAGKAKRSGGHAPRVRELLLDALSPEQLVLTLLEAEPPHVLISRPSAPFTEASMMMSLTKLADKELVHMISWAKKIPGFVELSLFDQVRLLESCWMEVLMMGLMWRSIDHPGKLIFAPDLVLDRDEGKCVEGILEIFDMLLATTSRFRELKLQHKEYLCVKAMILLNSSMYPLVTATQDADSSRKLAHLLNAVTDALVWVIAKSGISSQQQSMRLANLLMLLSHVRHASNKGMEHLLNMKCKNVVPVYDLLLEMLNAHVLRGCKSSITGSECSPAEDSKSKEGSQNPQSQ

Estrogen receptor beta [12] = molecular target: T7, Estrogen receptor beta; experiment: ERβ–SRC-3 coactivator interaction inhibitors, confirmation, orthogonal assay, biochemical, ELISA, streptavidin-HRP readout (AID 1060)
Protein RecA = molecular target: T8, Protein RecA (Mycobacterium tuberculosis, UniProt P9WHJ3); experiment: Fluorescence Cell-Free Homogeneous Dose Retest to Identify Inhibitors of RecA-Intein Splicing Activity. [Related pubchem assays (depositor defined):AID2097, AID2223, AID489010, AID492950]; type: functional
T8 sequence (P9WHJ3 whole entry): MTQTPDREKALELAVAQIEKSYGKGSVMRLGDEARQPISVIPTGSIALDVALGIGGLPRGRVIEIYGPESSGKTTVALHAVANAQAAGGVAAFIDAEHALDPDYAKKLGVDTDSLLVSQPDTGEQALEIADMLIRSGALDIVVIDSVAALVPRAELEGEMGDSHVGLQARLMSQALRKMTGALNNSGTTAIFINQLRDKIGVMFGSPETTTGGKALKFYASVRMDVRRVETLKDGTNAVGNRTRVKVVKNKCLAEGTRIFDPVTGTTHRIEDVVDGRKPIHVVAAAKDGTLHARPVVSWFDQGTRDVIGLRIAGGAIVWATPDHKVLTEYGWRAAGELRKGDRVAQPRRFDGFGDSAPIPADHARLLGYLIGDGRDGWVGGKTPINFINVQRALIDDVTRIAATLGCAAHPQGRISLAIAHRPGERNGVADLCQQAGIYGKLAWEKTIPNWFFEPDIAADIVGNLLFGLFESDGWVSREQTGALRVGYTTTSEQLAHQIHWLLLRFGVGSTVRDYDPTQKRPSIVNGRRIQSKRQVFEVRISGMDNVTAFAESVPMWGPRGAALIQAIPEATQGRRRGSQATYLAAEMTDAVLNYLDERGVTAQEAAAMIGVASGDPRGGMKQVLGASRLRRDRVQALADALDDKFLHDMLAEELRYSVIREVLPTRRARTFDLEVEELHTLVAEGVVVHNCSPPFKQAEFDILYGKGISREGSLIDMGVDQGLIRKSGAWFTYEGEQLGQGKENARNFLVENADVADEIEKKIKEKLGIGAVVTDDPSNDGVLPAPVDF

NADPH oxidase 1, sequence (Q9Y5S8 whole entry): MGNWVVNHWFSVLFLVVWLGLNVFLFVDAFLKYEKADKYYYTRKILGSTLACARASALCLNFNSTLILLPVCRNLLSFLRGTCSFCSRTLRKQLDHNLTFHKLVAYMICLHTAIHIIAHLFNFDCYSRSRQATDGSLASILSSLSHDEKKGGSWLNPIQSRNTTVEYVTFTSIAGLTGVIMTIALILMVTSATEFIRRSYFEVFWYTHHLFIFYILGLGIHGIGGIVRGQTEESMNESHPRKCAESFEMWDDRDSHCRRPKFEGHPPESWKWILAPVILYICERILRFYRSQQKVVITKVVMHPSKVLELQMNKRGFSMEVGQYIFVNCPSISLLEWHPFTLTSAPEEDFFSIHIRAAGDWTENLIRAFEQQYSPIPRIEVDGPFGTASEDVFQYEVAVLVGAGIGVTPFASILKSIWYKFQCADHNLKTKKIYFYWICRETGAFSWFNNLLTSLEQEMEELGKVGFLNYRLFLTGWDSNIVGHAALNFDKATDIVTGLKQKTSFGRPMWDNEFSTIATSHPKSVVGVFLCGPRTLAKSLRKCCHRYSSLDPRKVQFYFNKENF

For `c1ccc(-c2nc(-c3ccccc3)c(-c3ccccc3)o2)cc1`, the IC50 (NADPH oxidase 1) was > 17 µM (not active).
For `Cc1ccc(-n2sc3ccccc3c2=O)cc1S(=O)(=O)N1CCCCC1`, the IC50 [1] was 1.84 µM (inactive), the IC50 (Insulin-degrading enzyme) was 4.05 µM (active) and the IC50 [2] was 3.06 µM (active). The IC50 (Procathepsin L) was > 59.6 µM (not active), the IC50 [3] was 10.5 µM (not active) and the IC50 [4] was 1.93 µM (active). The EC50 [5] was > 60 µM (not active), the IC50 (Aspartyl aminopeptidase) was 4.28 µM (active) and the IC50 [6] was > 50 µM (not active). The IC50 (Large T antigen) was 26.1 µM (active), the IC50 (Phosphomannomutase 2) was 14.6 µM (active) and the EC50 [7] was 0.89 µM (active). The IC50 [8] was > 100 µM (inactive) and the IC50 [9] was > 50 µM (not active).
In the case of `CC1(N2CCOCC2)CC2(O)C(=[N+]1[O-])CCc1nonc12` (centres undefined), the AC50 [10] is reported as > 380 µM (inactive), the IC50 (Estrogen receptor beta [11]) is reported as 12 µM (active) and the IC50 (Estrogen receptor beta [12]) is reported as 0.256 µM (not active). The EC50 (Protein RecA) was 11.9 µM (active).
